Laboratory results as given in US20250213614A1, “Modified RELA Protein for Inducing Interferon Expression and Engineered Immune Cells with Improved Interferon Expression” (Institut Curie, priority 2022, published 2025).

B1: IRF3: interferon Regulatory Factor 3, over-expressed from lentivector (protein, UniProt Q14653 1-427, looked up)
Interferon regulatory factor 3: MGTPKPRILPWLVSQLDLGQLEGVAWVNKSRTRFRIPWKHGLRQDAQQEDFGIFQAWAEATGAYVPGRDKPDLPTWKRNFRSALNRKEGLRLAEDRSKDPHDPHKIYEFVNSGVGDFSQPDTSPDTNGGGSTSDTQEDILDELLGNMVLAPLPDPGPPSLAVAPEPCPQPLRSPSLDNPTPFPNLGPSENPLKRLLVPGEEWEFEVTAFYRGRQVFQQTISCPEGLRLVGSEVGDRTLPGWPVTLPDPGMSLTDRGVMSYVRHVLSCLGGGLALWRAGQWLWAQRLGHCHTYWAVSEELLPNSGHGPDGEVPKDKEGGVFDLGPFIVDLITFTEGSGRSPRYALWFCVGESWPQDQPWTKRLVMVKVVPTCLRALVEMARVGGASSLENTVDLHISNSHPLSLTSDQYKAYLQDLVEGMDFQGPGES

Key:
MDDC = assay: IFN-I/III quantification (LEGENDplex) in MDDC after STING stimulation; type: cell-based, human
Experimental: Plasmapheresis blood pockets were obtained from healthy adult volunteers after informed consent from the EFS (Establishment of French blood collection). Peripheral blood mononuclear cells (PBMCs) were isolated using Ficoll-Paque Plus (GE-17144003) and left overnight at 4° C. in RPMI (Thermo fischer #61870-010) with 10% heat-decomplemented fetal bovine serum (FBS, Eurobio #CVFSVFO0-01). CD14+ cells were enriched by positive selection (Miltenyi #130-050-201), the CD14 negative fraction was subsequently used to isolate total CD4+ T cells by negative selection (Stem Cell #17952). CD14+ cells were cultured in RPMI containing 10% FBS, 5% Penicillin-Streptomycin (PS, Thermo Fisher #10378-016), 50 μg/ml Gentamicin (Thermo Fisher #15750-045) and 10 mM HEPES (Thermo Fisher #15630-056). CD14+ cells were differentiated ex vivo into MDDC by supplementing the culture media with 50 ng/ml IL-4 (Miltenyi #130-093-922) and 10 ng/ml GM-CSF (Miltenyi #130-093-867). MDDC were used for experiments 3 or 4 days following the start of the culture. CD14+ cells were differentiated ex vivo into macrophages by adding 50 ng/ml MCSF (Miltenyi #130-096-492) to the culture media containing RPMI with 1% PS, 5% FBS and 5% human serum (Sigma #H4522). MDM were used 7 days following culture. Freshly isolated CD4+ T cells were cultured in X-VIVO 15 (Lonza #BE02-060F) and activated using anti-CD3 and anti-CD28 Dynabeads (fisher scientific #10548353) at the ratio of 1:5 (bead:cell). 100 U/ml human IL-2 (Immunotools #11340027) was added to cultures 2 days following TCR stimulation and media with IL-2 was replenished every 48 hours. To assess proliferation, freshly isolated CD4+ T cells were stained with cell proliferation dye (thermo fischer #65-0840-85) prior to TCR stimulation.
CD14+ cells were plated at 1 million cells/ml and transduced with equal volumes of freshly harvested SIV-VLPs and pTRIP-SFFV vectors in the presence of 8 μg/ml protamine (Sigma #P4020). CD4+ T cells were transduced with lentivectors 24 hours post-TCR stimulation in 100 μl of cells (0.2 million cells) and 100 μl of freshly harvested lentivirus in the presence of 8 μg/ml protamine. T cells were spinoculated at 1200 g for 2 hours at 25° C. 0.5 million THP-1 cells in 500 μl media (RPMI 10% FBS 1% PS) were transduced with 500 μl freshly harvested lentivirus in the presence of 8 μg/ml protamine. 1 μg/ml Puromycin (Invivogen #ant-pr-1) was added 2 days post-transduction when cells were transduced with pLKO.1-puro plasmid.
For stimulation of STING by extracellular ligands, 2.5 μg of ADUS100 (invivogen #tlrl-nacda2r-01) or 2′3′-cGAMP (cGAMP, invivogen #tlrl-nacga23-02) was added to 100,000 cells in 100 μl media either on freshly isolated primary cells or 3-4 days post differentiation for MDDC and 3 days post-TCR stimulation for CD4+ T cells. Cells and supernatant were harvested 18-24 hours post stimulation. For delivery of STING ligands after permeabilization, T cells were used 3 or 4 days post TCR stimulation and MDDC were used 3-4 days following differentiation. 150,000 cells were plated in round bottom 96-well plate. Media was removed by centrifugation and 20 μl 2× permeabilization buffer (100 mM HEPES, 200 mM KCl, 6 mM MgCl2, 0.2 mM DTT, 170 mM Sucrose, 2 mM ATP, 2 mM GTP, 0.4% bovine serum albumin (BSA), 20 μg/ml digitonin) and 20 μl cGAMP (12 μg/ml) was added to cells. 18 to 20 hours following stimulation supernatants and cells were harvested. Cells were stained with a fixable viability dye (Invitrogen #65-0865-14) and acquired on a FACSVerse (BD).
For experiments with conditioned media, CD4+ T cell- and MDDC-conditioned media refer to […] filtered conditioned media from cultures of activated CD4+ T cell and MDDC, respectively. CD4+ T cells were pretreated with 100 μl of MDDC-conditioned media or of fresh MDDC culture media, 24 hours prior to cGAMP stimulation. […]

[1] = test system: STING, TBK1, IRF3, RELA, IRF7; assay: Western blot of key signaling proteins involved in STING signaling; type: cell-based, human

Molecule | increase in IFNλ1 at baseline (MDDC; MDDC, monocyte-derived macrophages (MDM) or THP-1 cells, data not shown) | IFN-I/III response to cGAMP compared to the control condition (MDDC; lentivector overexpression in MDDC, cGAMP 6 μg/ml, FIG. 2D) | endogenous RELA expression ([1]; overexpression in CD4+ T cells and MDDC, FIG. 2C) | augmentation of cGAMP-mediated IFNλ1, IFNα2 and IFNβ production (MDDC; IRF3 over-expression in MDDC, cGAMP 6 μg/ml, FIG. 3B) [fold] | phospho-IRF3 levels in response to cGAMP ([1]; IRF3 over-expression, equivalent in CD4+ T cells and MDDC, FIG. 3C)
RELA K5R: RELA mutant converting five lysine residues (K122, K123, K310, K314, K315) to arginine, expressed from lentivector | not observed | remained unchanged | no impact | – | –
B1 | – | – | – | 10 | massive increase
